In US20050197350A1, “Novel quinoline, tetrahydroquinazoline, and pyrimidine derivatives and methods of treatment related to the use thereof” (TAISHO PHARMACEUTICAL CO., LTD., priority 2003, published 2005):

The compounds below were run on MCH receptors (assay: MCH receptor activity class (method not given)). Details: class by percent of control at 10^-7 M or IC50.

| Structure (SMILES) | class |
| --- | --- |
| CN(C)c1cc(N[C@H]2CC[C@@H](NC(=O)c3ccc(Br)s3)CC2)nc2ccccc12 [compound 673] | 2 (Class 2: The value of percent of control at 10^−7 M was from 40% to 60% or the value of IC′50 was from 50 nM to 200 nM.) |
| CN(C)c1cc(N[C@H]2CC[C@@H](NC(=O)Cc3c(Cl)ccc(Cl)c3Cl)CC2)nc2ccccc12 [compound 674, N-(cis-4-{[4-(dimethylamino)quinolin-2-yl]amino}cyclohexyl)-2-(2,3,6-trichlorophenyl)acetamide] | 3 (Class 3 The value of percent of control at 10^−7 M was more than 60% or the value of IC50 was more than 200 nM.) |
| CN(C)c1cc(N[C@H]2CC[C@@H](NC(=O)Cc3ccc(F)cc3Cl)CC2)nc2ccccc12 [compound 675] | 3 (Class 3 The value of percent of control at 10^−7 M was more than 60% or the value of IC50 was more than 200 nM.) |
| CN(C)c1cc(N[C@H]2CC[C@@H](NC(=O)c3ccc(-c4ccc(Cl)cc4[N+](=O)[O-])o3)CC2)nc2ccccc12 [compound 676, 5-(4-chloro-2-nitrophenyl)-N-(cis-4-{[4-(dimethylamino)quinolin-2-yl]amino}cyclohexyl)-2-furamide] | 2 (Class 2: The value of percent of control at 10^−7 M was from 40% to 60% or the value of IC′50 was from 50 nM to 200 nM.) |
| CN(C)c1cc(N[C@H]2CC[C@@H](NC(=O)c3ccc(Cl)s3)CC2)nc2ccccc12 [compound 677] | 2 (Class 2: The value of percent of control at 10^−7 M was from 40% to 60% or the value of IC′50 was from 50 nM to 200 nM.) |
| CN(C)c1cc(N[C@H]2CC[C@@H](NC(=O)CCc3ccccc3O)CC2)nc2ccccc12 [compound 679] | 3 (Class 3 The value of percent of control at 10^−7 M was more than 60% or the value of IC50 was more than 200 nM.) |
| CN(C)c1cc(N[C@H]2CC[C@@H](NC(=O)c3ccc(I)o3)CC2)nc2ccccc12 [compound 680, N-(cis-4-{[4-(dimethylamino)quinolin-2-yl]amino}cyclohexyl)-5-iodo-2-furamide] | 1 (Class 1: The value of percent of control at 10^−7 M was less than 40% or the value of IC50 was less than 50 nM.) |
| CN(C)c1cc(N[C@H]2CC[C@@H](NC(=O)Cc3ccccc3I)CC2)nc2ccccc12 [compound 681, N-(cis-4-{[4-(dimethylamino)quinolin-2-yl]amino}cyclohexyl)-2-(2-iodophenyl)acetamide] | 2 (Class 2: The value of percent of control at 10^−7 M was from 40% to 60% or the value of IC′50 was from 50 nM to 200 nM.) |
| COc1ccc2[nH]c(C)c(CC(=O)N[C@H]3CC[C@@H](Nc4cc(N(C)C)c5ccccc5n4)CC3)c2c1 [compound 682, N-(cis-4-{[4-(dimethylamino)quinolin-2-yl]amino}cyclohexyl)-2-(5-methoxy-2-methyl-1H-indol-3-yl)acetamide] | 2 (Class 2: The value of percent of control at 10^−7 M was from 40% to 60% or the value of IC′50 was from 50 nM to 200 nM.) |
| CN(C)c1cc(N[C@H]2CC[C@@H](NC(=O)/C=C/c3cccc([N+](=O)[O-])c3)CC2)nc2ccccc12 [compound 683] | 2 (Class 2: The value of percent of control at 10^−7 M was from 40% to 60% or the value of IC′50 was from 50 nM to 200 nM.) |
| CN(C)c1cc(N[C@H]2CC[C@@H](NC(=O)c3ccccc3Cc3ccccc3)CC2)nc2ccccc12 [compound 685] | 3 (Class 3 The value of percent of control at 10^−7 M was more than 60% or the value of IC50 was more than 200 nM.) |
| CN(C)c1cc(N[C@H]2CC[C@@H](NC(=O)C(c3ccc(Cl)cc3)c3ccc(Cl)cc3)CC2)nc2ccccc12 [compound 686] | 2 (Class 2: The value of percent of control at 10^−7 M was from 40% to 60% or the value of IC′50 was from 50 nM to 200 nM.) |
| Cc1ccc(-c2ccc(C(=O)N[C@H]3CC[C@@H](Nc4cc(N(C)C)c5ccccc5n4)CC3)o2)c([N+](=O)[O-])c1 [compound 687] | 3 (Class 3 The value of percent of control at 10^−7 M was more than 60% or the value of IC50 was more than 200 nM.) |
